Source: article PMC5905968, “Evaluation of the fusion inhibitor P3 peptide as a potential microbicide to prevent HIV transmission in women” (PLoS ONE, 2018)

Tests used:
[1] = system: vaginal epithelium of BALB/c mice; assay: BALB/c mice vaginal irritation test with histological score; assay type: in vivo; parameters: key to Epithelial lesion / Inflammatory infiltrate / Vascular congestion / Edema/fibrosis / Total Score: 0 (no change) when no injury or the observed changes were within normal range; 1 (minimum) when changes were sparse but exceeded those considered normal; 2 (light) when injuries were identifiable but with no severity; 3 (moderate) for significant injury that could increase in severity; 4 (very serious) for very serious injuries that occupy most of the analyzed tissue; details: for Edema/fibrosis / Epithelial lesion / Inflammatory infiltrate / Vascular congestion / Total Score: 3% N9 intravaginally, 7 days (irritation control); for Total Score: sum of the four lesion scores
Protocol: Female BALB/c mice (6–8 weeks-old) (Charles River Laboratories, Wilmington, MA) were pretreated subcutaneously with 2mg of medroxyprogesterone acetate (Depo-Provera; Pfizer, NY, USA) in PBS (Lonza, Verviers, Belgium). After five days, 30μl of test formulation with different doses of P3 diluted in PBS was applied intravaginally daily for 7 days by vaginal gavage to animals previously anesthetized with isoflurane (Forane, Abbott, Madrid). Controls included mice that received PBS (placebo group) and 3% nonoxynol-9 (N9) in PBS (irritation control group). On the eighth day, mice were sacrificed and genital tract tissue were extracted and fixed in 4% paraformaldehyde for histological analysis. The animals were distributed in groups of three mice each: group placebo only treated with PBS (1–3), group A treated with dose of 0.06mg/day ([…]) of P3 in PBS (4–6), group B treated with dose of 0.2mg/day (1522.7 μM) of P3 in PBS (7–9), group C treated with dose of 0.4mg/day (3045.3 μM) of P3 in PBS (10–12) and group irritation control treated with 3% N9 in PBS (13–15).
The presence of histological lesions in the mouse vaginas was evaluated with hematoxylin-eosin staining. Samples were embedded in paraffin by submersion in increasing concentrations of ethanol in water (Rectapur, VWR, England), two baths of xylene (Analar (VWR, England) and another of paraffin, before being placed in a paraffin mold. Subsequently, they were cut using a semimotorized microtome (RM2145 Leica, Germany) and processed for staining. For dewaxing, samples were submersed into two baths of xylene solution (10 min) and three baths in descending order of ethanol (100%, 90% and 70%) (5 min), before being stained with hematoxylin (Merck, Germany) for 5 min and eosin (Merck, Germany) for another 5 min. Post-eosin staining dehydration was performed with passages in increasing concentrations of ethanol (70%, 90% and 100%) and a bath of xylene solution. Finally, they were mounted with D.P.X. (Prolabo, VWR, Spain).
The existence of injury in vaginal epithelium, inflammatory infiltrate, vascular congestion and/or edema in the submucosa was evaluated in each biological sample. The values (score) assigned for each of these lesions were: 0 (no change) when no injury or the observed changes were within normal range; 1 (minimum) when changes were sparse but exceeded those considered normal; 2 (light) when injuries were identifiable but with no severity; 3 (moderate) for significant injury that could increase in severity; 4 (very serious) for very serious injuries that occupy most of the analyzed tissue. These values were added up and determined the level of vaginal irritation as minimum 1–4, average 5–8, moderate 9–11 and severe 12–16 [34].

[2] = at temperatures higher than 40 °C; cited from earlier work
Protocol: Microbicides must be stable at 37°C for a long period of time since it is the body temperature, and at 65 °C since some manufacturing processes may require high temperatures. Stability at room temperature or at 4 °C is also important since the storage at these temperatures is easier for the user and more affordable than at -20 °C. No statistically significance differences were observed on the anti-HIV-1 activity of P3 peptide stored at 25, 37 and 65 °C for a period of a week. The stability of P3 under different temperatures is much better than other peptide-based microbicide candidates or d ...

Row | Compound | level of irritation of the vaginal wall ([1]; 3% N9 in PBS daily for 7 days, three samples) | Edema/fibrosis ([1]; mouse 13) | Epithelial lesion ([1]; mouse 13) | Inflammatory infiltrate ([1]; mouse 13) | Vascular congestion ([1]; mouse 13) | Total Score ([1]; mouse 13) | Edema/fibrosis ([1]; mouse 14) | Epithelial lesion ([1]; mouse 14) | Inflammatory infiltrate ([1]; mouse 14) | Vascular congestion ([1]; mouse 14) | Total Score ([1]; mouse 14) | Edema/fibrosis ([1]; mouse 15) | Epithelial lesion ([1]; mouse 15) | Inflammatory infiltrate ([1]; mouse 15) | Vascular congestion ([1]; mouse 15) | Total Score ([1]; mouse 15) | thermal stability [2]
1 | CCCCCCCCCc1ccc(OCCOCCOCCOCCOCCOCCOCCOCCOCCO)cc1 [N9, nonoxynol-9, reference compound] | average (average 5–8) | 0 | 3 | 3 | 2 | 8 | 0 | 2 | 3 | 2 | 7 | 0 | 3 | 3 | 2 | 8 | –
2 | Spantide II | – | – | – | – | – | – | – | – | – | – | – | – | – | – | – | – | not stable
